Assay results published in patent US20040019082A1, “Reversible infertility in male mice following oral administration of alkylated imino sugars: a non-hormonal approach to male contraception” (United Therapeutics Corporation, priority 2002, published 2004).

Columns and labels:
male C57BL/6 mice = assay: Mating assay, fertility of male mice; assay type: in vivo, mouse
From the text: Treatment of mice—Male C57BL/6 mice were housed under standard non-sterile conditions. The mice were provided with water ad lib. and prior to drug administration were fed a diet of pelleted mouse chow (expanded Rat and Mouse Chow 3, SDS Ltd.) To administer the compounds of the present invention, the mice were fed a diet of powdered mouse chow (expanded Rat and Mouse Chow 1, ground, SDS Ltd.) containing either NB-DNJ, NB-DGJ, NN-6-MeDGJ, or DNJ. The diet and compound (both as dry solids) were mixed thoroughly, stored at room temperature, and used within 7 days of mixing.
Mating assays—To assess the fertility of male mice that were fed on a diet containing an iminosugar, a mating assay was used: typically six week old male C57BL/6 mice in groups of three were administered diet containing compound for five weeks (unless otherwise specified), after which each of them was caged with four untreated female C57BL/6 mice, and provided with standard pelleted chow. Females were at least 11 weeks old, and age-matched in each experiment. The male was removed from the females after 7 or 9 days, depending on the experiment; the females were monitored for vaginal mucous plugs, pregnancies, and, if any, litter sizes. To study any effect on female fertility six-week-old female C57BL/6 mice were treated with NB-DNJ for five weeks, after which each of them was caged with a non-treated age-matched male for four days.

[1] = tested on: testosterone, luteinising and follicle-stimulating hormones; assay: Endocrinological assays; assay type: in vivo, mouse
Experimental: Endocrinological assays—Following termination of mice by asphyxiation in CO2 and cervical dislocation, blood was obtained via cardiac puncture, which was allowed to clot at room temperature (RT). Serum was obtained by centrifugation, and stored at −80° C. until use. Testosterone, luteinising and follicle-stimulating hormones were measured by methods well-known in the art (Huhtaniemi, I., Nikula, H. & Rannikko, S. (1985) J Clin Endocrinol Metab 61, 698-704; Haavisto, A. M., Pettersson, K., Bergendahl, M., Perheentupa, A., Roser, J. F. & Huhtaniemi, I. (1993) Endocrinology 132, 1687-91; van Casteren, J. I., Schoonen, W. G. & Kloosterboer, H. J. (2000) Biol Reprod 62, 886-94.)

epididymal spermatozoa [2] = assay: Electron microscopy of epididymal spermatozoa; assay type: in vivo, mouse
Experimental: For scanning electron microscopy, dried smears of murine spermatozoa were prepared as described above. Cells were fixed for 20 min in 4% paraformaldehyde in PBS, transferred to 70, 80 and 95% ethanol, critical-point dried in a Polaron CPD7501 instrument, gold-coated using a Nanotech Semprep2, and examined in a Hitachi S800 FEG-SEM at 3 kV. For transmission electronmicroscopy epididymal spermatozoa were collected in 1 mg/ml cold water soluble polyvinylalcohol in PBS, and spun for 10 min. at 600×g. Pelleted cells were fixed overnight at 4° C. with 1% glutaraldehyde, 0.2% picric acid in 0.2 M cacodylic acid pH 7.4, washed once in 0.1 M cacodylic acid pH 7.4, and stored in 70% ethanol. Cells were postfixed with 2% osmium letroxide, embedded in araldite, sectioned at 70 nm, stained with uranyl acetate/lead citrate, and examined with a JEOL JEM-100CX microscope at 80 kV.

epididymal spermatozoa [3] = assay: Computer-assisted sperm motility analysis; assay type: in vivo, mouse; details: mean ± SD, n ≧ 3
Experimental: Motility analysis. Mice were terminated by asphyxiation in CO2 and cervical dislocation, and caudae epididymides were removed with vasa deferentia. Spermatozoa were collected in pre-warmed M2 medium (Sigma) by stripping the vasa deferentia and by applying mild pressure to the caudae epididymides; the cells were incubated at 37° C. for 1 hour, and videographed using a Leica DM IRB microscope fitted with a JVC TK-1281 camera. Computer-assisted sperm motility analysis was performed using a Hobson Sperm Tracker (Hobson Vision Ltd., UK) at 50 frames per second. Motility parameters of each sperm sample were measured in triplicate, collecting data from 200 sperm tracks per determination.

epididymal sperm = assay: Epididymal sperm count; assay type: in vivo, mouse; details: at loss of fertility caused by the drug
[4] = humans; cited from earlier work
[5] = tested on: mouse models with impaired GSL degradation; details: in vivo; cited from earlier work
[6] = 5 mg/kg per day, five weeks in diet
[7] = 2400 mg/kg per day, taken off the drug after five weeks of treatment

For CCCCN1C[C@H](O)[C@@H](O)[C@H](O)[C@H]1CO [NB-DNJ, N-butyldeoxynojirimycin], the fertility (male C57BL/6 mice; 1 mg/kg per day, five weeks in diet) was “did not affect”, the “fertility (pregnancies per male)” value (male C57BL/6 mice; [6]) was “reduced their fertility” and the litter size (male C57BL/6 mice; [6]) was “reduced”. For the same molecule, the fertility (male C57BL/6 mice; 15 mg/kg per day, five weeks in diet) was “completely infertile”, the “fertility, capacity to sire normal-sized litters” value (male C57BL/6 mice; 2400 mg/kg per day oral, one or two weeks of treatment, six-week old males) was “this capacity was maintained” and the “infertility, length of treatment needed” value (male C57BL/6 mice; 2400 mg/kg per day oral, weekly increments) was “infertile after at least three weeks”. The “litter size after withdrawal” value (male C57BL/6 mice; [7]) was “normal-sized litters”, the “regain of fertility after withdrawal” value (male C57BL/6 mice; [7]) was “regained fertility in the fourth week” and the fertility (male C57BL/6 mice; 13 week old males, 2400 mg/kg per day for five weeks) was “complete sterility”. For the same molecule, the “frequency of post-coital vaginal mucous plugs (mating behavior)” value (male C57BL/6 mice; NB-DNJ dose range, five weeks in diet) was “not affected”, the “dose required for induced infertility” value (male C57BL/6 mice; oral, male mice) was “at least 15 mg/kg/day” and the “serum testosterone, FSH, LH and testicular testosterone” value ([1]; 2400 mg/kg/day, p<0.001) was “significant reduction”. For the same molecule, the “serum testosterone, FSH, LH and testicular testosterone” value ([1]; 15, 150 or 1200 mg/kg/day) was “did not change”, the “tails and mitochondria of epididymal spermatozoa” value (epididymal spermatozoa [2]; 1,200 mg/kg/day (FIG. 5)) was “induced a number of abnormalities” and the “acrosomal elements covering the nuclei, ultrastructural level” value (epididymal spermatozoa [2]; 1,200 mg/kg/day (FIGS. 5D-5F)) was “no typical acrosomal elements were seen”. The “% motile” value (epididymal spermatozoa [3]; NB-DNJ 15 mg/kg/day) was 26 ± 16%, the “VCL, curvilinear velocity” value (epididymal spermatozoa [3]; NB-DNJ 15 mg/kg/day) was 74 ± 31 μm/sec and the “VSL, straight line velocity” value (epididymal spermatozoa [3]; NB-DNJ 15 mg/kg/day) was 27 ± 9 μm/sec. For the same molecule, the “% motile” value (epididymal spermatozoa [3]; NB-DNJ 150 mg/kg/day) was 15 ± 6%, the “VCL, curvilinear velocity” value (epididymal spermatozoa [3]; NB-DNJ 150 mg/kg/day) was 89 ± 31 μm/sec and the “VSL, straight line velocity” value (epididymal spermatozoa [3]; NB-DNJ 150 mg/kg/day) was 27 ± 8 μm/sec. For the same molecule, the “% motile” value (epididymal spermatozoa [3]; NB-DNJ 1200 mg/kg/day) was 17 ± 7%, the “VCL, curvilinear velocity” value (epididymal spermatozoa [3]; NB-DNJ 1200 mg/kg/day) was 49 ± 17 μm/sec and the “VSL, straight line velocity” value (epididymal spermatozoa [3]; NB-DNJ 1200 mg/kg/day) was 18 ± 9 μm/sec. The “% motile” value (epididymal spermatozoa [3]; NB-DNJ 2400 mg/kg/day) was 9 ± 2%, the “VCL, curvilinear velocity” value (epididymal spermatozoa [3]; NB-DNJ 2400 mg/kg/day) was 28 ± 21 μm/sec and the “VSL, straight line velocity” value (epididymal spermatozoa [3]; NB-DNJ 2400 mg/kg/day) was 9 ± 5 μm/sec. For the same molecule, the epididymal sperm count (epididymal sperm) was “not associated with a reduction”, the tolerability [4] was “well tolerated” and the therapeutic effect [5] was “therapeutically effective”.
